Reference: BindingDB's records for doi:10.1016/j.bmc.2018.03.025 (Xi'An Jiaotong University, 2018)

experiment: Inhibition of EGFR L858R mutant (unknown origin) using poly (Glu, Tyr) as substrate after 40 mins by kinase-glo plus luminescence assay

Row | SMILES | IC50
1 | CN(C)CCOc1ccc(Nc2ncc3nc(Sc4ccc(F)cc4)n(C4CCOCC4)c3n2)cc1 | 1.2 nM
2 | CN(C)C1CCN(c2ccc(Nc3ncc4nc(Sc5ccccc5)n(C5CCOCC5)c4n3)cc2)CC1 | 1.9 nM
3 | CN1CCN(c2ccc(Nc3ncc4nc(Sc5ccccc5)n([C@H]5CC[C@H](O)CC5)c4n3)cc2)CC1 | 2.4 nM
4 | CN1CCN(c2ccc(Nc3ncc4nc([S+]([O-])c5ccccc5)n(C5CCCC5)c4n3)cc2)CC1 (centres undefined) | 4.2 nM
5 | CN1CCN(c2ccc(Nc3ncc4nc(Sc5ccccc5)n(C5CCOCC5)c4n3)cc2)CC1 | 2 nM
6 | CN1CCN(c2ccc(Nc3ncc4nc(Sc5ccccc5)n(C5CCCC5)c4n3)cc2)CC1 | 4.2 nM

Continued, values first:

Row | IC50 | SMILES
7 | 5.8 nM | CN(C)CCOc1ccc(Nc2ncc3nc(Sc4cccc(F)c4)n(C4CCOCC4)c3n2)cc1
8 | 2.6 nM | CN(C)CCOc1ccc(Nc2ncc3nc([S+]([O-])c4ccccc4)n(C4CCOCC4)c3n2)cc1 (centres undefined)
9 | 1.7 nM | CN(C)CCOc1ccc(Nc2ncc3nc(Sc4ccccc4)n(C4CCOCC4)c3n2)cc1
